Results: patent publication US8574831B2, “Mutational profiles in HIV-1 reverse transcriptase correlated with phenotypic drug resistance” (Virco N.V., priority 2000, dated 2013)

Test system: HIV with mutations in the HIV protease sequence
Test: Phenotypic fold resistance to protease inhibitors, protease mutations 84A/84L/84C/54M/54L/54V in a background (Examples 8-13)
Type: cell-based, HIV-1
Procedure: As is the case with the genotyping assays, the recombinant virus assay starts with the amplification of viral target sequences by means of PCR. The amplicons are incorporated into a proviral laboratory clone with sequences homologous to those present in the amplicon deleted. This generates a stock of chimeric viruses. The viruses are tested for their ability to grow in the presence of different concentrations of drugs. Results are obtained by calculating IC50 values for each inhibitor and by reporting the results as IC50 values, expressed in μM concentrations, or by computing the ratio of the IC50 values found for the chimeric virus to the IC50 values found for a wild type susceptible laboratory virus tested in parallel. In the latter case, resistance is expressed as “fold-resistance” compared to a wild-type susceptible HIV-1 strain. In order to meet the need for high-volume testing and a short turn-around time for an individual test, the latest generation of phenotyping assays has undergone further modifications. The use of reporter gene systems for susceptibility testing allows the implementation of laboratory automation and standardization. See Pauwels, et al., J. Virol. Methods 20, 309-321 (1998); Paulous, S., et al., International Workshop on HIV Drug Resistance, Treatment Strategies and Eradication, St. Petersburg, Fla., USA. Abstr. 46 (1997); and Deeks, S. G., et al., 2nd International Workshop on HIV Drug Resistance and Treatment Strategies, Lake Maggiore, Italy. Abstr. 53 (1998).
The ANTIVIROGRAM® assay (Virco) (WO 97/27480) is based on homologous recombination of patient derived HIV-1 gag/PR/RT sequences into a proviral HIV-1 clone correspondingly deleted for the gag/PR/RT sequences. See Pauwels, et al., J. Virol. Methods 20, 309-321 (1998). A similar assay (Phenosense ViroLogic) is based on enzymatic ligation of patient-derived PR/RT sequences into a correspondingly deleted proviral vector carrying an indicator gene, luciferase, inserted in the deleted HIV-1 envelope gene. See Deeks, S. G., et al., 2nd International Workshop on HIV Drug Resistance and Treatment Strategies, Lake Maggiore, Italy. Abstr. 53 (1998). Hertogs et al. Antimicrob. Agents Chemother. 44(3) 568-573 (2000) the disclosures of which are herein incorporated by reference.
The methods of monitoring HIV-1 drug resistance, may also be used in combination with phenotypic drug resistance testing of viral isolates. For example, in one embodiment, a phenotypic test is utilized that is based upon the construction of chimeric HIV-1 strains composed of the protease (PR) and reverse transcriptase (RT) gene sequences which are isolated and amplified from the patient viral RNA. These strains may subsequently be recombined inside CD4+ T cells with a standard laboratory isogenic (HXB2) HIV-1 DNA construct from which the PR/RT gene sequences were deleted. The recombinant strains may then be grown in the presence of the above-mentioned antiviral drugs and the susceptibility of the viral isolates may be expressed as fold-change value of the IC50 of the drug on the patient isolates over the IC50 of the drug on a wild-type laboratory reference strain.

## CC(C)CN(C[C@@H](O)[C@H](Cc1ccccc1)NC(=O)O[C@H]1CCOC1)S(=O)(=O)c1ccc(N)cc1 [Amprenavir, amprenavir]
Table 12, V055199, genotype 10I + 33F + 54M + 90M
  Fold change in IC50: 38.7 fold
Table 13, V19263, genotype 77I
  Fold change in IC50: 0.6 fold
Table 13, V20160, genotype WT
  Fold change in IC50: 1.0 fold
Table 13, V021667, genotype 10I
  Fold change in IC50: 1.1 fold
Table 13, V030496, genotype 10I + 77I
  Fold change in IC50: 0.5 fold
Table 13, V048868, genotype 10I + 54L + 71V + 77I + 90M
  Fold change in IC50: 4.1 fold
Table 13, V048874, genotype 10I + 33F + 54L + 71V + 77I + 90M
  Fold change in IC50: 32.1 fold
Table 13, V048875, genotype 10I + 33F + 54L + 71V + 77I + 90M
  Fold change in IC50: 24.6 fold
Table 13, V048877, genotype 10I + 33F + 77I + 90M
  Fold change in IC50: 7.9 fold
Table 13, V048880, genotype 10I + 33F + 77I + 90M
  Fold change in IC50: 3.8 fold
Table 13, V052940, genotype 71V
  Fold change in IC50: 0.3 fold
Table 13, V052942, genotype 10I + 71V
  Fold change in IC50: 0.5 fold
Table 13, V052943, genotype 10I + 90M
  Fold change in IC50: 0.4 fold
Table 13, V052944, genotype 10I + 90M
  Fold change in IC50: 0.7 fold
Table 13, V052945, genotype 77I + 90M
  Fold change in IC50: 0.3 fold
Table 13, V052946, genotype 71V + 90M
  Fold change in IC50: 0.5 fold
Table 13, V052947, genotype 10I + 77I + 90M
  Fold change in IC50: 1.2 fold
Table 13, V052948, genotype 10I + 71V + 90M
  Fold change in IC50: 2.0 fold
Table 13, V052949, genotype 10I + 71V + 77I + 90M
  Fold change in IC50: 0.6 fold
Table 13, V052950, genotype 33F
  Fold change in IC50: 0.7 fold
Table 13, V052951, genotype 33F + 77I
  Fold change in IC50: 0.3 fold
Table 13, V052953, genotype 10I + 33F + 77I
  Fold change in IC50: 1.5 fold
Table 13, V052954, genotype 33F + 77I + 90M
  Fold change in IC50: 2.1 fold
Table 13, V052955, genotype 33F + 71V + 90M
  Fold change in IC50: 2.7 fold
Table 13, V052968, genotype 10L/I + 33F/L + 54L + 77I
  Fold change in IC50: 2.9 fold
Table 13, V052969, genotype 10I + 33F + 54L + 90M
  Fold change in IC50: 10.4 fold
Table 13, V052970, genotype 54L
  Fold change in IC50: 0.8 fold
Table 13, V052971, genotype 10I + 54L
  Fold change in IC50: 2.6 fold
Table 13, V052972, genotype 54L + 77I
  Fold change in IC50: 1.1 fold
Table 13, V052973, genotype 10I + 54L + 77I
  Fold change in IC50: 2.1 fold
Table 13, V052974, genotype 10I + 54L + 90M
  Fold change in IC50: 1.2 fold
Table 13, V052975, genotype 10I + 54L + 71V + 90M
  Fold change in IC50: 6.2 fold
Table 13, V052976, genotype 10I + 54L + 71V + 77I + 90M
  Fold change in IC50: 2.0 fold
Table 13, V053832, genotype 10I + 33F
  Fold change in IC50: 0.6 fold
Table 13, V053854, genotype 54L + 71V
  Fold change in IC50: 5.0 fold
Virco ID 214846, genotype 10I + 33F + 54V + 71V + 77I + 90M, vs mean IC50 of wild type laboratory HIV strain
  Fold change in IC50: 4.2 fold
Virco ID V021667, genotype 10I, vs mean IC50 of wild type laboratory HIV strain
  Fold change in IC50: 1.1 fold
Virco ID V030496, genotype 10I + 77I, vs mean IC50 of wild type laboratory HIV strain
  Fold change in IC50: 0.5 fold
Virco ID V048876, genotype 33F + 54V + 77I + 90M, vs mean IC50 of wild type laboratory HIV strain
  Fold change in IC50: 1.1 fold
Virco ID V048877, genotype 10I + 33F + 77I + 90M, vs mean IC50 of wild type laboratory HIV strain
  Fold change in IC50: 7.9 fold
Virco ID V048880, genotype 10I + 33F + 77I + 90M, vs mean IC50 of wild type laboratory HIV strain
  Fold change in IC50: 3.8 fold
Virco ID V052940, genotype 71V, vs mean IC50 of wild type laboratory HIV strain
  Fold change in IC50: 0.3 fold
Virco ID V052942, genotype 10I + 71V, vs mean IC50 of wild type laboratory HIV strain
  Fold change in IC50: 0.5 fold
Virco ID V052943, genotype 10I + 90M, vs mean IC50 of wild type laboratory HIV strain
  Fold change in IC50: 0.4 fold
Virco ID V052944, genotype 10I + 90M, vs mean IC50 of wild type laboratory HIV strain
  Fold change in IC50: 0.7 fold
Virco ID V052946, genotype 71V + 90M, vs mean IC50 of wild type laboratory HIV strain
  Fold change in IC50: 0.5 fold
Virco ID V052947, genotype 10I + 77I + 90M, vs mean IC50 of wild type laboratory HIV strain
  Fold change in IC50: 1.2 fold
Virco ID V052948, genotype 10I + 71V + 90M, vs mean IC50 of wild type laboratory HIV strain
  Fold change in IC50: 2.0 fold
Virco ID V052949, genotype 10I + 71V + 77I + 90M, vs mean IC50 of wild type laboratory HIV strain
  Fold change in IC50: 0.6 fold
Virco ID V052950, genotype 33F, vs mean IC50 of wild type laboratory HIV strain
  Fold change in IC50: 0.7 fold
Virco ID V052951, genotype 33F + 77I, vs mean IC50 of wild type laboratory HIV strain
  Fold change in IC50: 0.3 fold
Virco ID V052953, genotype 10I + 33F + 77I, vs mean IC50 of wild type laboratory HIV strain
  Fold change in IC50: 1.5 fold
Virco ID V052954, genotype 33F + 77I + 90M, vs mean IC50 of wild type laboratory HIV strain
  Fold change in IC50: 2.1 fold
Virco ID V052955, genotype 33F + 71V + 90M, vs mean IC50 of wild type laboratory HIV strain
  Fold change in IC50: 2.7 fold
Virco ID V052957, genotype 10I + 33F + 54V + 90M, vs mean IC50 of wild type laboratory HIV strain
  Fold change in IC50: 5.2 fold
Virco ID V052958, genotype 10I + 33F + 54V + 77I + 90M, vs mean IC50 of wild type laboratory HIV strain
  Fold change in IC50: 7.8 fold
Virco ID V052959, genotype 10I + 33F + 54V + 77I + 90M, vs mean IC50 of wild type laboratory HIV strain
  Fold change in IC50: 7.0 fold
Virco ID V052960, genotype 10I + 33F + 54V + 71V + 90M, vs mean IC50 of wild type laboratory HIV strain
  Fold change in IC50: 6.4 fold
Virco ID V052961, genotype 54V, vs mean IC50 of wild type laboratory HIV strain
  Fold change in IC50: 0.5 fold
Virco ID V052962, genotype 10I + 54V, vs mean IC50 of wild type laboratory HIV strain
  Fold change in IC50: 0.5 fold
Virco ID V052963, genotype 54V + 77I + 90M, vs mean IC50 of wild type laboratory HIV strain
  Fold change in IC50: 0.5 fold
Virco ID V052964, genotype 54V + 71V + 90M, vs mean IC50 of wild type laboratory HIV strain
  Fold change in IC50: 0.3 fold
Virco ID V052965, genotype 10I + 54V + 77I + 90M, vs mean IC50 of wild type laboratory HIV strain
  Fold change in IC50: 0.7 fold
Virco ID V052966, genotype 10I + 54V + 71V + 90M, vs mean IC50 of wild type laboratory HIV strain
  Fold change in IC50: 1.5 fold
Virco ID V052967, genotype 10I + 54V + 71V + 77I + 90M, vs mean IC50 of wild type laboratory HIV strain
  Fold change in IC50: 0.4 fold
Virco ID V053358, genotype 33F + 54V + 77I + 90M, vs mean IC50 of wild type laboratory HIV strain
  Fold change in IC50: 1.0 fold
Virco ID V053831, genotype 33F + 54V, vs mean IC50 of wild type laboratory HIV strain
  Fold change in IC50: 7.5 fold
Virco ID V053832, genotype 10I + 33F, vs mean IC50 of wild type laboratory HIV strain
  Fold change in IC50: 0.6 fold
